According to the supplement of paper PMC11208160:

assay: recombinant UMI read abundance after kanamycin selection (control-corrected) (log10(CPM+1)); higher = more efficient recombination; extreme values may be limits of the assay; sequences stand for … in AGTGCAGAGAAAATCGGCCAGTTTTCTCTGCCTGCAGTCCGCATGCCGTGGGACCCCTTGGGTTCTAACCTGTTGCCTAGATTTATGCAGCGGACTGCCTTTCTCCCAAAGTGATAAACCGG…AGGTTGGTTTCACT; site = the 11-nt donor
Outline: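 For the IS621 bridge recombinase, a pooled Escherichia coli screen tested donor and donor-binding-loop pairs. Cells received the pair library together with a target plasmid encoding a fixed target and T7-inducible recombinase, then went onto IPTG (0.07 mM) plus kanamycin or unselected plates in duplicate. After PCR across the donor–target junction and sequencing, recombinant UMI counts were normalized to CPM, averaged, and scaled by control-derived factors. Each value is given as log10(CPM+1).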
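Also: IS621 bridge recombinase in Escherichia coli cells against a fixed T5 target plasmid.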

| Sequence | recombinant UMI read abundance (log10) |
| --- | --- |
| GGACACCCATGGACCGGTTTTCCCGGTAATCCGTATTTGTT (site GGCCACCCTAA) | 0.011 |
| GGACACCCATGGACCGGTTTTCCCGGTAATCCGTATTTGTT (site GGGCACCCTAA) | 0.0209 |
| GGACACCCATGGACCGGTTTTCCCGGTAATCCGTATTTGTT (site GGTCACCCTAA) | 0.00995 |
| GGACACGCATGGACCGGTTTTCCCGGTAATCCGTATTTGAC (site GGACACGCTGT) | 2.38 |
| GGACGCGCATGGACCGGTTTTCCCGGTAATCCGTATTTGGA (site GGACGCGCTTC) | 0.00923 |
| GGACGGCCATGGACCGGTTTTCCCGGTAATCCGTATTTGCG (site GGACGGCCTCG) | 0.137 |
| GGACTAGCATGGACCGGTTTTCCCGGTAATCCGTATTTGTA (site GGACTAGCTTA) | 2.56 |
| GGAGACACATGGACCGGTTTTCCCGGTAATCCGTATTTGTC (site GGAGACACTGA) | 2.59 |
| GGAGCATCATGGACCGGTTTTCCCGGTAATCCGTATTTGAA (site GGAGCATCTTT) | 1.8 |
| GGAGGCCCATGGACCGGTTTTCCCGGTAATCCGTATTTGAT (site GGAGGCCCTAT) | 0.727 |
| GGAGGGCCATGGACCGGTTTTCCCGGTAATCCGTATTTGGC (site GGAGGGCCTGC) | 0 |
| GGAGGTACATGGACCGGTTTTCCCGGTAATCCGTATTTGCG (site GGAGGTACTCG) | 1.31 |
| GGAGTCGCATGGACCGGTTTTCCCGGTAATCCGTATTTGGT (site GGAGTAGCTAC) | 0.278 |
| GGAGTCGCATGGACCGGTTTTCCCGGTAATCCGTATTTGGT (site GGAGTCGCTAC) | 0.854 |
| GGAGTCGCATGGACCGGTTTTCCCGGTAATCCGTATTTGGT (site GGAGTGGCTAC) | 0.0282 |
| GGAGTCGCATGGACCGGTTTTCCCGGTAATCCGTATTTGGT (site GGAGTTGCTAC) | 0.00431 |

| Sequence | recombinant UMI read abundance (log10) |
| --- | --- |
| GGAGTGACATGGACCGGTTTTCCCGGTAATCCGTATTTGGT (site GGAGTGACTAC) | 0.736 |
| GGAGTGACATGGACCGGTTTTCCCGGTAATCCGTATTTGGT (site GGAGTGCCTAC) | 0.00536 |
| GGAGTGACATGGACCGGTTTTCCCGGTAATCCGTATTTGGT (site GGAGTGGCTAC) | 0.259 |
| GGAGTGACATGGACCGGTTTTCCCGGTAATCCGTATTTGGT (site GGAGTGTCTAC) | 0.92 |
| GGAGTGGCATGGACCGGTTTTCCCGGTAATCCGTATTTGCT (site GGAGTGGCTAA) | 0.463 |
| GGAGTGGCATGGACCGGTTTTCCCGGTAATCCGTATTTGCT (site GGAGTGGCTAC) | 0.163 |
| GGAGTGGCATGGACCGGTTTTCCCGGTAATCCGTATTTGCT (site GGAGTGGCTAG) | 2.36 |
| GGAGTGGCATGGACCGGTTTTCCCGGTAATCCGTATTTGCT (site GGAGTGGCTAT) | 0.809 |
| GGAGTGGCATGGACCGGTTTTCCCGGTAATCCGTATTTGGC (site GGAGTGGCTAC) | 0.502 |
| GGAGTGGCATGGACCGGTTTTCCCGGTAATCCGTATTTGGC (site GGAGTGGCTCC) | 0.101 |
| GGAGTGGCATGGACCGGTTTTCCCGGTAATCCGTATTTGGC (site GGAGTGGCTGC) | 2 |
| GGAGTGGCATGGACCGGTTTTCCCGGTAATCCGTATTTGGC (site GGAGTGGCTTC) | 0.328 |
| GGAGTGGCATGGACCGGTTTTCCCGGTAATCCGTATTTGGT (site AGAGTGGCTAC) | 0.902 |
| GGAGTGGCATGGACCGGTTTTCCCGGTAATCCGTATTTGGT (site CGAGTGGCTAC) | 0.437 |
| GGAGTGGCATGGACCGGTTTTCCCGGTAATCCGTATTTGGT (site GAAGTGGCTAC) | 0.126 |
| GGAGTGGCATGGACCGGTTTTCCCGGTAATCCGTATTTGGT (site GCAGTGGCTAC) | 0.497 |
